Data: patent publication US5250283A, “Organic contrast agent analog and method of making same” (priority 1992, dated 1993)
Where a name gives a salt, the structure may show the parent alone. Read-outs that look alike come from different tables or passages of the source.

Legend:
[1] = Tissue distribution 90 min after i.v. TFA-IOP (100 umol/kg) or IOP (100 in text, 104 umol/kg in tables) in rats; format: in vivo; details: rat; for concentration at 1.5 h / tissue uptake at 1.5 h: iv; for concentration at 1.5 h: 100 umol/kg; for Percentage of dose in tissue: Table 6; for tissue uptake at 1.5 h: in vivo, read-out: Percentage of dose per gram
Description: No standard curves were compiled for these tissues. The values given
represent concentrations generated using the LIVER analysis routine and
standard curve. Because this routine utilizes a control LIVER spectra for
background modeling, erroneous Iodine concentration values for these
tissues may result due to inappropriate background removal.

[2] = Plasma concentration after i.v. IOP or TFA-IOP in rats; format: in vivo; details: rat
[3] = Biliary excretion and bile flow after i.v. TFA-IOP (100 umol/kg) or IOP (100 in text, 104 umol/kg in tables) in rats; details: for Percentage of dose per kg. body wt.: rat bile
Description: Tissues examined included liver, spleen, upper GI, lower GI, kidney, lung and heart. The length of each study was 90 minutes, during which time bile, urine and plasma samples were taken to monitor uptake and excretion. NMR relaxation rates for liver and plasma were also examined to note whether uptake of either compound might possible alter these parameters.

[4] = i.v., 90 min, Table 1, liver standard curve, may be erroneous

CCC(Cc1c(I)cc(I)c(NC(=O)C(F)(F)F)c1I)C(=O)O (stereo not shown) [TFA-IOP, N-trifluoroacetyl-iopanoic acid]
concentration at 1.5 h ([1]; heart, i.v., 90 min, liver standard curve used, may be erroneous, read-out: Heart concentration): 243 µM
% of dose in kidney ([1]; i.v., 90 min, Table 1): 0.34%
% of dose in liver ([1]; i.v., 90 min, Table 1): 6.04%
% of dose in heart [1, 4]: 0.72%
% of dose in lower GI [1, 4]: 0.63%
% of dose in lung [1, 4]: 0.83%
% of dose in spleen [1, 4]: 0.24%
% of dose in upper GI [1, 4]: 0.41%
Percentage of dose per kg b.wt. ([1]; i.v., 90 min, heart): 1.66 PERCENTAGE OF DOSE per kg b.wt
uMoles in tissue ([1]; i.v., 90 min, heart): .31 µmol
uMoles per gram tissue ([1]; i.v., 90 min, heart): .24 uMOLES per gram
uMoles per kg ([1]; i.v., 90 min, heart): 242.85 uMOLES per kg
Percentage of dose in tissue ([1]; i.v., 90 min, heart): .72 PERCENTAGE OF DOSE
Percentage of dose per kg b.wt. ([1]; i.v., 90 min, kidney): .78 PERCENTAGE OF DOSE per kg b.wt
uMoles in tissue ([1]; i.v., 90 min, kidney): .15 µmol
uMoles per gram tissue ([1]; i.v., 90 min, kidney): .06 uMOLES per gram
uMoles per kg ([1]; i.v., 90 min, kidney): 57.84 uMOLES per kg
Percentage of dose in tissue ([1]; i.v., 90 min, kidney): .34 PERCENTAGE OF DOSE
Percentage of dose per kg b.wt. ([1]; i.v., 90 min, liver): 13.88 PERCENTAGE OF DOSE per kg b.wt
uMoles in tissue ([1]; i.v., 90 min, liver): 2.63 µmol
uMoles per gram tissue ([1]; i.v., 90 min, liver): .20 uMOLES per gram
uMoles per kg ([1]; i.v., 90 min, liver): 201.73 uMOLES per kg
Percentage of dose in tissue ([1]; i.v., 90 min, liver): 6.04 PERCENTAGE OF DOSE
Percentage of dose per kg b.wt. ([1]; i.v., 90 min, lower GI): 1.45 PERCENTAGE OF DOSE per kg b.wt
uMoles in tissue ([1]; i.v., 90 min, lower GI): .27 µmol
uMoles per gram tissue ([1]; i.v., 90 min, lower GI): .18 uMOLES per gram
uMoles per kg ([1]; i.v., 90 min, lower GI): 178.09 uMOLES per kg
Percentage of dose in tissue ([1]; i.v., 90 min, lower GI): .63 PERCENTAGE OF DOSE
Percentage of dose per kg b.wt. ([1]; i.v., 90 min, lung): 1.91 PERCENTAGE OF DOSE per kg b.wt
uMoles in tissue ([1]; i.v., 90 min, lung): .36 µmol
uMoles per gram tissue ([1]; i.v., 90 min, lung): .28 uMOLES per gram
uMoles per kg ([1]; i.v., 90 min, lung): 277.64 uMOLES per kg
Percentage of dose in tissue ([1]; i.v., 90 min, lung): .83 PERCENTAGE OF DOSE
Percentage of dose per kg b.wt. ([1]; i.v., 90 min, spleen): .55 PERCENTAGE OF DOSE per kg b.wt
uMoles in tissue ([1]; i.v., 90 min, spleen): .10 µmol
uMoles per gram tissue ([1]; i.v., 90 min, spleen): .16 uMOLES per gram
uMoles per kg ([1]; i.v., 90 min, spleen): 164.06 uMOLES per kg
Percentage of dose in tissue ([1]; i.v., 90 min, spleen): .24 PERCENTAGE OF DOSE
Percentage of dose per kg b.wt. ([1]; i.v., 90 min, upper GI): .94 PERCENTAGE OF DOSE per kg b.wt
uMoles in tissue ([1]; i.v., 90 min, upper GI): .18 µmol
uMoles per gram tissue ([1]; i.v., 90 min, upper GI): .14 uMOLES per gram
uMoles per kg ([1]; i.v., 90 min, upper GI): 140.23 uMOLES per kg
Percentage of dose in tissue ([1]; i.v., 90 min, upper GI): .41 PERCENTAGE OF DOSE
tissue uptake at 1.5 h ([1]; 90 min, heart): 0.56 %ID/g
tissue uptake at 1.5 h ([1]; 90 min, kidney): 0.13 %ID/g
tissue uptake at 1.5 h ([1]; 90 min, liver): 0.46 %ID/g
tissue uptake at 1.5 h ([1]; 90 min, lower GI): 0.41 %ID/g
tissue uptake at 1.5 h ([1]; 90 min, lung): 0.64 %ID/g
tissue uptake at 1.5 h ([1]; 90 min, spleen): 0.38 %ID/g
tissue uptake at 1.5 h ([1]; 90 min, upper GI): 0.32 %ID/g
concentration at 1.5 h ([1]; kidney, i.v., 90 min post injection, heading: kidney concentration, read-out: kidney concentration): 57.8 µM
concentration at 1.5 h ([1]; kidney, i.v., 90 min post injection, read-out: Kidney concentration): 57.8 µM
concentration at 1.5 h ([1]; liver, i.v., 90 min post injection, read-out: Liver concentration): 202 µM
concentration at 1.5 h ([1]; liver, i.v., 90 min post injection, read-out: liver concentration): 202 µM
concentration at 1.5 h ([1]; lower gi, i.v., 90 min, liver standard curve used, may be erroneous, read-out: Lower GI concentration): 178 µM
concentration at 1.5 h ([1]; lung, i.v., 90 min, liver standard curve used, may be erroneous, read-out: Lung concentration): 278 µM
concentration at 1.5 h ([1]; spleen, i.v., 90 min, liver standard curve used, may be erroneous, read-out: Spleen concentration): 164 µM
concentration at 1.5 h ([1]; upper gi, i.v., 90 min, liver standard curve used, may be erroneous, read-out: Upper GI concentration): 140 µM
concentration at 10 min ([2]; plasma, iv, 100 umol/kg, 10 min): 863 µM
concentration at 20 min ([2]; plasma, iv, 100 umol/kg, 20 min): 604 µM
concentration at 0.5 h ([2]; plasma, iv, 100 umol/kg, 30 min): 573 µM
concentration at 40 min ([2]; plasma, iv, 100 umol/kg, 40 min): 510 µM
concentration at 50 min ([2]; plasma, iv, 100 umol/kg, 50 min): 469 µM
concentration at 1 h ([2]; plasma, iv, 100 umol/kg, 60 min): 415 µM
concentration at 70 min ([2]; plasma, iv, 100 umol/kg, 70 min): 374 µM
concentration at 80 min ([2]; plasma, iv, 100 umol/kg, 80 min): 403 µM
concentration at 1.5 h ([2]; plasma, iv, 100 umol/kg, 90 min): 360 µM
Plasma concentration ([2]; 0 min): 0 nM
Percentage of dose per kg. body wt. ([3]; i.v., 0-10 min): 6.48 PERCENTAGE OF DOSE per kg. bod
Percentage of dose per kg. body wt. ([3]; i.v., 10-20 min): 11.22 PERCENTAGE OF DOSE per kg. bod
Percentage of dose per kg. body wt. ([3]; i.v., 20-30 min): 13.78 PERCENTAGE OF DOSE per kg. bod
Percentage of dose per kg. body wt. ([3]; i.v., 30-40 min): 12.34 PERCENTAGE OF DOSE per kg. bod
Percentage of dose per kg. body wt. ([3]; i.v., 40-50 min): 12.30 PERCENTAGE OF DOSE per kg. bod
Percentage of dose per kg. body wt. ([3]; i.v., 50-60 min): 12.60 PERCENTAGE OF DOSE per kg. bod
Percentage of dose per kg. body wt. ([3]; i.v., 60-70 min): 7.73 PERCENTAGE OF DOSE per kg. bod
Percentage of dose per kg. body wt. ([3]; i.v., 70-80 min): 7.44 PERCENTAGE OF DOSE per kg. bod
Percentage of dose per kg. body wt. ([3]; i.v., 80-90 min): 6.37 PERCENTAGE OF DOSE per kg. bod
Percentage of dose per kg. body wt. ([3]; i.v., period 10-0 min (pre-injection)): .70 PERCENTAGE OF DOSE per kg. bod
Cmax at 1.5 h ([3]; rat, bile, iv, 100 umol/kg): 0.5 µM
concentration at 0 h ([3]; rat, bile, iv, 100 umol/kg): 635 µM
concentration at 5 min ([3]; rat, bile, iv, 100 umol/kg): 3010 µM
concentration at 10 min ([3]; rat, bile, iv, 100 umol/kg): 3010 µM
concentration at 0.25 h ([3]; rat, bile, iv, 100 umol/kg): 5780 µM
concentration at 20 min ([3]; rat, bile, iv, 100 umol/kg): 5780 µM
concentration at 25 min ([3]; rat, bile, iv, 100 umol/kg): 6440 µM
concentration at 0.5 h ([3]; rat, bile, iv, 100 umol/kg): 6440 µM
concentration at 35 min ([3]; rat, bile, iv, 100 umol/kg): 7800 µM
concentration at 40 min ([3]; rat, bile, iv, 100 umol/kg): 7800 µM
concentration at 50 min ([3]; rat, bile, iv, 100 umol/kg): 7640 µM
concentration at 55 min ([3]; rat, bile, iv, 100 umol/kg): 8460 µM
concentration at 1 h ([3]; rat, bile, iv, 100 umol/kg): 8460 µM
concentration at 65 min ([3]; rat, bile, iv, 100 umol/kg): 5370 µM
concentration at 70 min ([3]; rat, bile, iv, 100 umol/kg): 5370 µM
concentration at 1.25 h ([3]; rat, bile, iv, 100 umol/kg): 5310 µM
concentration at 80 min ([3]; rat, bile, iv, 100 umol/kg): 5310 µM
concentration at 85 min ([3]; rat, bile, iv, 100 umol/kg): 4660 µM
concentration at 1.5 h ([3]; rat, bile, iv, 100 umol/kg): 4660 µM
dose excreted at 1.5 h ([3]; rat, bile, iv, 100 umol/kg): 40%
Bile flow ([3]; rat, i.v., 0-10 min): .04071 mL/min
Bile flow per kg b.w. ([3]; rat, i.v., 0-10 min): .09359 ml/min per kg b.w.
